Assays:
platelet aggregation = test: Platelet aggregation inhibitory effect (ADP-induced aggregation of washed platelets); format: cell-based, Nippon white rabbits; details: Oryctolagus cuniculus, washed rabbit platelets, 10 μM adenosine 5'-diphosphate, drug added 3 min before
Method: Male Nippon white rabbits weighing 2.0 to 2.5 kg were used. […] Next, centrifugation was carried out at 140×g for 15 minutes, and the supernatant (platelet-enriched plasma: PRP) was collected. The PRP was centrifuged at 1300×g for 7 minutes. The platelet pellets obtained were washed with a HEPES buffer for platelet washing (pH 6.5) and centrifuged at 1300×g for 7 minutes. […] For assaying platelet aggregation ability, an aggregometer was used, and 10 μl of a test drug was added to 380 μl of the platelet suspension. Three minutes later, 10 μl of a platelet aggregating substance (10 μM adenosine 5'-diphosphate at a final concentration) was added thereto to induce aggregation. […]

coronary artery = test: Coronary artery blood flow increasing effect; format: in vivo, mongrel dogs; details: Canis lupus familiaris; anesthetized dogs, intraarterial into coronary artery; 100% = reactive hyperemia after 15 s occlusion
Method: Adult mongrel dogs weighing 9 to 15 kg were anesthetized with pentobarbital sodium, and the chest of each was opened under artificial respiration. After pericardium excision, the left anterior descending coronary artery was peeled off from the surrounding tissues, a probe for blood flow measurement was set under heparin sodium treatment, and the coronary blood flow was measured by the use of an electromagnetic blood flow meter.
The test drug was injected intraarterially into the coronary artery.

vertebral artery = test: Vertebral artery blood flow increasing effect; format: in vivo, mongrel dogs; details: Canis lupus familiaris; anesthetized dogs, intraarterial into vertebral artery; 100% = increase by 100 μg/kg papaverine hydrochloride
Method: The chests of female and male adult mongrel dogs weighing 8 to 13 kg, under anesthesia by intravenous administration of pentobarbital sodium, were opened under artificial respiration along the median line to expose the left vertebral artery.
The test drug was injected intraarterially into the vertebral artery.

[1] = system: atrioventricular conduction; test: Effect on atrioventricular conduction (atrioventricular block appearance ratio); format: in vivo, guinea pigs; details: for Atrioventricular Block Appearance Ratio (Number of Animals Showing Appearance/Number of Animals Used): guinea pigs, second degree block, after intravenous 300 μg/kg
Method: Each of male guinea pigs weighing 360 to 600 g, after being anesthetized by intraperitoneal administration of 1.4 g/kg of urethane, was fixed on the back, and the trachea was cut open for ensuring airway, a polyethylene tube being inserted thereinto. The blood pressure was measured through a carrier amplifier by connecting the cannula inserted into the left common carotid artery to a pressure transducer. The electrocardiogram was recorded by means of a bioelectric amplifier according to the second induction method, and the PQ interval was measured from the electrocardiogram. The test drug was administered through the left femoral vein, and the presence or absence of appearance of atrioventricular block is represented by the appearance ratio of the second degree of atrioventricular block (number of animals showing appearance/number of animals used) by the test drug administration.

[2] = system: coronary artery / renal artery; test: Safety coefficient (margin of safety from renal blood flow reduction and coronary artery blood flow increase); set-up: species or system mongrel dogs
Excerpt: As described above, the 2-alkynyladenosine, which is the active ingredient of the drug of the present invention, has a remarkable platelet aggregation inhibitory effect, blood flow increasing effect of various blood vessels (coronary artery and vertebral artery) and brain protecting effect in combination. […] To describe in more detail, the 2-alkynyladenosine, which is the active ingredient of the present drug, has an extremely high ratio of the primary effects such as platelet aggregation inhibitory effect, blood flow increasing effect of various blood vessels, and brain protecting effect to the side-effects such as atrioventricular block appearance ratio and renal blood flow reduction effect, that is, the 2-alkynyladenosine has an extremely broad margin of safety as compared to the prior compounds. For example, the margins of safety (coefficients) of the 2-alkynyladenosine calculated on the basis of the results in TABLE 2 and TABLE 4 by taking an example of coronary artery blood flow increasing effect as the primary effect and renal blood flow reduction effect as the side-effect are as shown below in TABLE 5. From TABLE 5, it can be understood that the 2-alkynyladenosine is a compound having a broader margin of safety as compared with adenosine.

[3] = Effect on renal blood flow (renal blood flow reduction effect); details: dog, in vivo
Method: (§2) Female and male adult mongrel dogs weighing 10 to 15 kg were used. After each dog was anesthetized by intravenous administration of 30 mg/kg of pentobarbital sodium, it was fixed on the back, and the left lower abdominal portion was cut open under artificial respiration to expose the left renal artery. Under heparin sodium treatment, a polyethylene cannula was inserted into the renal artery, and at the other end of the cannula was set a probe for blood flow measurement. Self-perfusion was effected by means of a tube for blood perfusion led from the left femoral artery and connected to the probe, and the renal artery blood flow was measured by means of an electromagnetic blood flow meter.
(§3) The test drug was injected intraarterially into the renal artery.

ICR mice [4] = test: Brain protecting effect: normobaric hypoxia method; format: in vivo; details: 30 min before 96% N2/4% O2, (±S.E.), control 126.8 ±10.7
Method: When the brain falls into hypoxia by cerebral circulatory disorder, its function will be rapidly and irreversibly lost. Accordingly, the pharmacological activities of the drugs were evaluated with the extension time relative to the survival time of the test animals under hypoxia or anoxia induced by changing gas phase components or by a drug.
Evaluation of the pharmacological activity by the normobaric hypoxia method was conducted by following the method of Yasuda et al. (Arch. Int. Pharmacodyn, 233, 136-144 (1978)) as described below.
Animals used were 8 to 11 male ICR mice of 7 weeks age (Clea Japan) per group.
The mice were placed in a desiccator made of glass, and hypoxia was induced by passing a gas mixture of 96% N2 and 4% O2 at a flow rate of 5 liters/min. The time after the passing of the gas into the desiccator to the respiration arrest of each mouse was measured and defined as the survival time.
The test drug was administered intraperitoneally 30 minutes before the initiation of gas passing. The average survival times for the control group and the group to which the test drug was administered were calculated.
The test drug was suspended in a physiological saline containing 0.5% CMC (carboxymethyl cellulose), and the dosage was 0.1 ml per 10 g of body weight. To the mice of the control group was administered 0.5% of the CMC physiological saline in the same manner. The statistical analysis was conducted according to the student's t-test.

ICR mice [5] = test: Brain protecting effect: potassium cyanide (KCN)-induced anoxia method; format: in vivo; details: 30 min before 2.5 mg/kg KCN, (±S.E.), * P < 0.05
in vivo = details: dog
Method: as §2, §3

Acute toxicity = details: mouse, in vivo; mice, oral administration, estimated
Method: (§1) By the use of Slc:ICR mice (7 to 8 weeks old), the acute toxicity tests of Compound 4 (n=5) and Compound 12 (n=13) were conducted.

Slc:ICR mice = test: Acute toxicity; details: mouse, in vivo, po, 1000 mg/kg
Method: as §1

Nc1ncnc2c1ncn2[C@@H]1O[C@H](CO)[C@@H](O)[C@H]1O [Adenosine]
IC50 (platelet aggregation): 3200 nM | ED50 (coronary artery): 0.0001 mg/kg | ED50 (vertebral artery): 0.00052 mg/kg | Atrioventricular Block Appearance Ratio (Number of Animals Showing Appearance/Number of Animals Used) [1]: 6/6 | Safety Coefficient ([2]; from TABLE 2 coronary artery blood flow increasing effect and TABLE 4 renal blood flow reduction effect): 2 | ED50 [3]: 0.0002 mg/kg

CCCCC#Cc1nc(N)c2ncn([C@@H]3O[C@H](CO)[C@@H](O)[C@H]3O)c2n1 [Compound 2, 2-hexynyladenosine]
IC50 (platelet aggregation): 61 nM | ED50 (vertebral artery): 0.00014 mg/kg | Average Survival Time, Normobaric Hypoxia Method (ICR mice [4]; 0.1 mg/kg i.p.): 171.9 (±22.1) sec. | Average Survival Time, Normobaric Hypoxia Method (ICR mice [4]; 0.3 mg/kg i.p.): 169.2 (±23.5) sec. | Average Survival Time, Normobaric Hypoxia Method (ICR mice [4]; 1.0 mg/kg i.p., ** P < 0.01): 217.3 (±26.2) sec. | Average Survival Time, Potassium Cyanide Induced Anoxia Method (ICR mice [5]; 1.0 mg/kg i.p., control (1) 39.8 (±2.4)): 50.05 (±3.8) sec. | atrioventricular block appearance ratio compared with adenosine ([1]; 300 μg/kg intravenous): same atrioventricular block appearance ratio as that of adenosine | Atrioventricular Block Appearance Ratio (Number of Animals Showing Appearance/Number of Animals Used) [1]: 6/6 | Safety Coefficient ([2]; dog, in vivo): 75 | ED50 (in vivo): 0.00015 mg/kg

CCCCCCC#Cc1nc(N)c2ncn([C@@H]3O[C@H](CO)[C@@H](O)[C@H]3O)c2n1 [Compound 4, 2-octynyladenosine]
IC50 (platelet aggregation): 140 nM | ED50 (vertebral artery): 0.0004 mg/kg | Average Survival Time, Normobaric Hypoxia Method (ICR mice [4]; 0.3 mg/kg i.p.): 128.7 (±4.8) sec. | Average Survival Time, Normobaric Hypoxia Method (ICR mice [4]; 1.0 mg/kg i.p., ** P < 0.01): 222.9 (±25.9) sec. | Average Survival Time, Normobaric Hypoxia Method (ICR mice [4]; 3.0 mg/kg i.p., ** P < 0.01): 230.6 (±26.7) sec. | Atrioventricular Block Appearance Ratio (Number of Animals Showing Appearance/Number of Animals Used) [1]: 1/6 | LD50 (Acute toxicity): ≥ 1000 mg/kg | lethal cases (Slc:ICR mice): no lethal case was recognized | Safety Coefficient ([2]; dog, in vivo): > 375 | ED50 (in vivo): > 0.003 mg/kg

CCCCCCCC#Cc1nc(N)c2ncn([C@@H]3O[C@H](CO)[C@@H](O)[C@H]3O)c2n1 [Compound 5]
IC50 (platelet aggregation): 210 nM | ED50 (vertebral artery): 0.0012 mg/kg | Atrioventricular Block Appearance Ratio (Number of Animals Showing Appearance/Number of Animals Used) [1]: 0/6 | Safety Coefficient ([2]; dog, in vivo): > 40 | ED50 (in vivo): > 0.003 mg/kg

CCCCCCCCC#Cc1nc(N)c2ncn([C@@H]3O[C@H](CO)[C@@H](O)[C@H]3O)c2n1 [Compound 6]
IC50 (platelet aggregation): 720 nM | ED50 (coronary artery): 0.00015 mg/kg | ED50 (vertebral artery): > 0.003 mg/kg | Atrioventricular Block Appearance Ratio (Number of Animals Showing Appearance/Number of Animals Used) [1]: 1/6 | Safety Coefficient ([2]; dog, in vivo): > 20 | ED50 (in vivo): > 0.003 mg/kg

CCCCCCCCCCCCCCC#Cc1nc(N)c2ncn([C@@H]3O[C@H](CO)[C@@H](O)[C@H]3O)c2n1 [Compound 12, 2-hexadecynyladenosine]
IC50 (platelet aggregation): > 3100 nM | ED50 (coronary artery): > 0.0001 mg/kg | ED50 (vertebral artery): > 0.003 mg/kg | Average Survival Time, Potassium Cyanide Induced Anoxia Method (ICR mice [5]; 30 mg/kg i.p., control (2) 41.8 (±1.9)): 76.7 (±11.7) sec. | Atrioventricular Block Appearance Ratio (Number of Animals Showing Appearance/Number of Animals Used) [1]: 0/6 | LD50 (Acute toxicity): ≥ 1000 mg/kg | lethal cases (Slc:ICR mice): no lethal case was recognized | Safety Coefficient ([2]; dog, in vivo): 30 | ED50 (in vivo): > 0.003 mg/kg

Reference: patent US5270304A, “Therapeutic 2-alkynyl adenosine agent for ischemic diseases of the heart or brain” (priority 1988, dated 1993)
